Columns and labels:
Test in all cases: normalised response (% of control), CellTiter-Glo; higher = more viable cells (100 = DMSO, 0 = benzethonium chloride kill control)
Conditions in all cases: incubation time: 72 h
BT-474 = tested on: BT-474
Method in brief: (§1)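 Values are normalised signals, each belonging to one concentration of the series. Breast cancer cells (20 µl suspension) were seeded into 384-well plates with compound at 5 concentrations in 10-fold steps over a compound-specific 10,000-fold range and incubated 72 h. Readouts were CellTox Green fluorescence (485/520 nm), then CellTiter-Glo luminescence after 10 min at room temperature, with each plate set to 0.1 % DMSO as 100 and a positive kill control as 0.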

BT-549 = tested on: BT-549
Method in brief: as §1

CAL-120 = tested on: CAL-120
Method in brief: as §1

CAL-148 = tested on: CAL-148
Method in brief: as §1

CAL-51 = tested on: CAL-51
Method in brief: as §1

CAL-85-1 = tested on: CAL-85-1
Method in brief: as §1

DU-4475 = tested on: DU-4475
Method in brief: as §1

HCC1143 = tested on: HCC1143
Method in brief: as §1

HCC1599 = tested on: HCC1599
Method in brief: as §1

HCC1937 = tested on: HCC1937
Method in brief: as §1

HDQ-P1 = tested on: HDQ-P1
Method in brief: as §1

Hs578T = tested on: Hs578T
Method in brief: as §1

MCF-10A = tested on: MCF-10A
Method in brief: as §1

MDA-MB-231 = tested on: MDA-MB-231
Method in brief: as §1

MDA-MB-436 = tested on: MDA-MB-436
Method in brief: as §1

MDA-MB-453 = tested on: MDA-MB-453
Method in brief: as §1

MDA-MB-468 = tested on: MDA-MB-468
Method in brief: as §1

MFM-223 = tested on: MFM-223
Method in brief: as §1

SK-BR-3 = tested on: SK-BR-3
Method in brief: as §1

SMILES	normalised response (BT-474) [%]	normalised response (BT-549) [%]	normalised response (CAL-120) [%]	normalised response (CAL-148) [%]	normalised response (CAL-51) [%]	normalised response (CAL-85-1) [%]	normalised response (DU-4475) [%]	normalised response (HCC1143) [%]	normalised response (HCC1599) [%]	normalised response (HCC1937) [%]	normalised response (HDQ-P1) [%]	normalised response (Hs578T) [%]	normalised response (MCF-10A) [%]	normalised response (MDA-MB-231) [%]	normalised response (MDA-MB-436) [%]	normalised response (MDA-MB-453) [%]	normalised response (MDA-MB-468) [%]	normalised response (MFM-223) [%]	normalised response (SK-BR-3) [%]
Cc1c(CN2CCN(C(=O)[C@H](C)O)CC2)sc2c(N3CCOCC3)nc(-c3cnc(N)nc3)nc12 [GDC-0980] (1 nM)	111	105	104	112	115	105	104	96.7	110	98.9	103	103	108	109	101	94.9	108	98.8	105
Cc1c(CN2CCN(C(=O)[C@H](C)O)CC2)sc2c(N3CCOCC3)nc(-c3cnc(N)nc3)nc12 [GDC-0980] (10 nM)	106	101	97.4	117	90.2	96.9	101	106	105	107	94.4	98.3	109	107	104	97.5	113	106	108
Cc1cccc(-c2nn3c(c2-c2ccnc4ccc(C(N)=O)cc24)CCC3)n1 [Galunisertib] (0.1 nM)	108	95.7	104	112	76.9	98.1	105	110	107	104	104	110	109	100	104	107	116	108	109
Nc1cccc2c1CN(C1CCC(=O)NC1=O)C2=O (stereo not given) [Lenalidomide] (1 nM)	97	101	94.9	97.8	113	108	106	93.1	106	94	97.9	97.1	96.1	98.4	94	112	110	97.3	107
Nc1cccc2c1CN(C1CCC(=O)NC1=O)C2=O (stereo not given) [Lenalidomide] (10 nM)	97.8	101	92.6	99.7	73.6	106	102	105	111	91.2	99.9	97.1	104	97.8	91.9	104	105	95.8	107
C[C@]12O[C@H](C[C@]1(O)CO)n1c3ccccc3c3c4c(c5c6ccccc6n2c5c31)CNC4=O [Lestaurtinib] (0.1 nM)	96.7	98.4	103	90.7	91.1	103	94.8	99.6	92.7	95	100	97.8	92.9	102	94	100	95.8	96.7	89.2
O=C1c2c(O)ccc(O)c2C(=O)c2c(NCCNCCO)ccc(NCCNCCO)c21 [Mitoxantrone] (0.1 nM)	91.8	99.3	103	94.2	101	101	94.2	104	95.3	98.1	102	96.9	103	98.9	84.4	99.3	97.8	97.3	98
O=C1c2c(O)ccc(O)c2C(=O)c2c(NCCNCCO)ccc(NCCNCCO)c21 [Mitoxantrone] (1 nM)	94.5	91.3	96.9	101	73.6	100	99.1	98.3	96.7	98.7	96.2	102	97.8	100	98.8	103	100	106	100
Nc1ccccc1NC(=O)c1ccc(CNc2nccc(-c3cccnc3)n2)cc1 [Mocetinostat] (1 nM)	100	98.5	102	109	85.2	101	105	96.7	91.5	102	101	99.3	91.6	103	111	114	101	98.1	103
COc1nc(N)nc2c1ncn2[C@@H]1O[C@H](CO)[C@@H](O)[C@@H]1O [Nelarabine] (1 nM)	87.9	102	94.5	84.1	117	94.9	89.5	92.3	105	88.8	90.5	94.8	79.1	98.1	86	90.4	84	88.2	86.1
